Reference: patent US20160346255A1, “METHODS, AGENTS AND COMPOSITIONS FOR TREATMENT OF INFLAMMATORY CONDITIONS” (Betanien Hospital, priority 2014, published 2016)
Where two headings read alike, the source gives them in different places. Non-standard residues stand in square brackets, D forms with d. Residues, ends and D or L forms follow the SMILES beside them. d(hArg(Et2)) = CCN=C(NCC)NCCCC[C@@H](N)C(=O)O; hArg(Et2) = CCN=C(NCC)NCCCC[C@H](N)C(=O)O; dPhe(4-Cl) = N[C@H](Cc1ccc(Cl)cc1)C(=O)O; d2Nal = N[C@H](Cc1ccc2ccccc2c1)C(=O)O; dCit = NC(=O)NCCC[C@@H](N)C(=O)O; d3Pal = N[C@H](Cc1cccnc1)C(=O)O

Experiments:
[1] = system: systemic sclerosis patients; conditions: over 12 months; increased from 7; cited from earlier work
[2] = system: patients with active longstanding RA; experiment: Double-blinded randomised study of cetrorelix in active longstanding RA (NCT00667758, AGRA); type: in vivo, human; conditions: preceding the P1NP reduction at day 10
From the text: The manuscript by Kass et al., 2014 Scand. J. Rheumatol., 43 (1), 22-27, describes a short term study of a GnRH antagonist, Cetrorelix (AGRA study). This is the first human study of GnRH antagonist treatment in an inflammatory disease. […] However, some patients did show some response and the response was thought to be limited to patients with above normal levels of LH and FSH (Abstract to the 13th annual American College of Rheumatology meeting). […] However, current TNFα inhibiting therapy in rheumatoid arthritis is long term. […] There are several examples in medicine that give positive immediate effects in disease but are unsuitable for long term use, either due to lack of efficacy, safety or both.
In this double-blinded, single-site study in Norway (ClinicalTrials.gov NCT00667758), 99 patients with active longstanding RA, were randomised to predefined intention-to-treat populations using computer-generated allocation (1:1) in dynamic blocks stratified for sex. Patients were assigned to subcutaneous cetrorelix (n=48) (5 mg days 1-2, 3 mg days 3-5) or placebo (n=51). P1NP was measured on day 10. We investigated serum P1NP between groups, a predefined secondary endpoint. Detailed efficacy and safety data are presented separately.

[3] = system: Patient with Osteoarthritis; experiment: Intra-articular cetrorelix in a patient with osteoarthritis; type: in vivo, human; conditions: 1 mg injected into both knees; 2 week post injection
Experimental: • person with osteoarthritis of both knees diagnosed by X-ray 10 years ago. • Has had synovitis secondary to osteoarthritis in both knees for the last month, confirmed by synovitis on ultrasound. • In order to treat the secondary inflammation as a result of their knee osteoarthritis, they are offered intra-articular GnRH antagonist treatment, for example cetrorelix 1 mg injected into both knees. Subcutaneous cetrorelix for injection can be used. • Before and 2 week post injection ultrasound images are taken to show a decrease in synovitis in the knee joint.

[4] = system: Patient with Rheumatoid Arthritis; experiment: Rheumatoid arthritis patient treated with cetrorelix; type: in vivo, human; conditions: at 12 weeks
Experimental: (§1) • person with seropositive rheumatoid arthritis with disease duration of 10 years. • Fulfilled ACR 2010 classification criteria for rheumatoid arthritis.
• Had tried all therapies available previously without effect. • Offered experimental GnRH antagonist therapy, cetrorelix in 0.5 mg s.c. daily in October 2014, then 0.75 mg s.c. daily in December 2014.

[5] = system: patients with active longstanding RA; conditions: 5 days of treatment; Kass et al. 2014; cited from earlier work
[6] = system: mice; experiment: Mouse study of preventing age related inflammation with cetrorelix; type: in vivo; conditions: 0.5 mg/kg daily with or without gonadal hormone replacement
Experimental: An animal study is conducted with 40 fertile female mice aged approximately 6-20 months in a control group (group 1) receiving placebo, 40 age and sex matched mice receiving a drug that reduces the activity of GnRH (group 2), such as cetrorelix 0.5 mg/kg daily, and 40 age and sex matched mice receiving the same GnRH inhibitor as group 2, but with the additional replacement of gonadal hormone (oestrogen) to age adjusted pre-chosen levels. All mice are followed prospectively, and evaluated for systemic inflammation markers, atherosclerosis, osteoporosis, LDL, and age at death. The same three interventions and assessments are carried out in three groups of male mice with 40 male mice in each group, aged approximately 6-20 months, replacing the gonadal hormone testosterone to pre-chosen levels in group 3. Mice treated with a drug that reduces the activity of GnRH, such as cetrorelix 0.5 mg/kg daily with or without the replacement of gonadal hormone (preferably with) reach a higher age at death compared with mice in the placebo groups. These mice also show less atherosclerosis, osteoporosis and systemic inflammation than mice in the placebo groups.

[7] = system: Patient with Rheumatoid Arthritis; experiment: Rheumatoid arthritis patient treated with ganirelix; type: in vivo, human; conditions: at 4 months
Experimental: as §1
• Had tried almost all available rheumatoid arthritis therapies available previously without effect. • Offered experimental GnRH antagonist therapy, ganirelix 0.75 mg s.c. daily (0.25 mg s.c. three times a day).
• Disease activity score (DAS) reduction from 5.5 to 2.2 (remission). • A DAS reduction of 0.6 units is defined as a clinical response to treatment (1). • […] ESR decreased from 28 mm to 19 mm, with a normalization of their CRP from 23 mg/L to 5 mg/L. This is supported by the decrease in their anti-cyclic citrullinated peptide (CCP) antibodies from 27 μ/mL to 14 μ/mL.

[8] = system: Patient with Tendonitis; experiment: Tendonitis patient treated with ganirelix injection; type: in vivo, human; conditions: 1.5 mg injected around the affected tendon; 2 week post injection
Experimental: • person diagnosed with tendonitis of the elbow with ultrasound confirming tendonitis.
• Treated with an injection of GnRH antagonist, ganirelix 1.5 mg, around the affected tendon.
• Before and 2 week post injection ultrasound images are taken to show a decrease in tendonitis of the elbow. […] Such injections may be administered over the long-term, for example every 3 months to maintain optimal effect.

[9] = system: Patient with Lupus; experiment: Lupus patient treated with degarelix (and earlier therapies); type: in vivo, human; conditions: for Reducing the pain in their extremities / Side effects: previous therapy
Experimental: Example of Treating a Patient with Lupus with a GnRH Antagonist
Due to their painful condition, they have been followed up by a pain clinic. They were offered a tricyclic antidepressant, amitriptyline 25 mg in March 2014 for their painful condition.
Therefore, we decided to offer […] degarelix. GnRH antagonists have shown anti-inflammatory effects and therefore we considered that degarelix, a depot GnRH antagonist, may have a therapeutic effect in lupus. 09.15.14, […] received […] loading dose of degarelix, 240 mg s.c.
They received their second dose of degarelix in October 2014, 80 mg s.c. They continue on 80 mg s.c. every two weeks.

[10] = system: Patient with Spondyloarthritis; experiment: Spondyloarthritis patient treated with oral relugolix; type: in vivo, human; conditions: 400 mg daily; at 12 weeks, remission; baseline 5
Experimental: • person with spondyloarthritis with disease duration of 5 years.
• Is offered experimental GnRH antagonist therapy, relugolix 400 mg daily for 12 weeks.
• Disease activity in ankylosing spondylitis/spondyloarthritis is measured by the BASDAI score. His BASDAI is 5 at baseline.

[11] = system: patients with IBD; conditions: week 2 after an infusion; cited from earlier work
[12] = system: Patient with Ankylosing Spondylitis; experiment: Ankylosing spondylitis patient treated with degarelix (and earlier TNF inhibitors); type: in vivo, human; conditions: ankylosing spondylitis patient
From the text: Example of Treating a Patient with Ankylosing Spondylitis with a GnRH Antagonist
Diagnosed with ankylosing spondylitis in 1984, HLAB27 positive, with repeated iridocyclitis. Used non-steroidal anti-inflammatory drugs previously. They were offered the TNFα inhibitor Golilimumab in 2010. Their disease activity score was 8.9 in October 2010 (see below for explanation of disease activity score) on initiating Golilimumab; by the June 2012 this score had reduced to 6.6, but by May 2013 the effect had worn off and their score was 7.6. May 2013, they initiated Enbrel treatment, but their disease activity increased from 7.6 to 8.3. Due to their poor response to TNFα therapy, they were offered the GnRH antagonist degarelix in September 2014.
Disease activity in ankylosing spondylitis is measured by the BASDAI (Bath Ankylosing Spondylitis Disease Activity Index (1)), which has been extensively validated in clinical trials, 2, 3 and is one of the most commonly used outcome measures in clinical trials. This is a composite index that evaluates fatigue, axial and peripheral pain, stiffness and enthesopathy. Their BASDAI was at 8.7 at baseline. In September 2014 they received their first dose of degarelix 240 mg s.c. By 2 weeks, their BASDAI had reduced to 6.8, and by 6 weeks it had reduced to 5.8. This is the lowest BASDAI score they have ever had since we first started using this method of assessment 4 years ago in 2010. Their morning stiffness lasted 4 hours at baseline, by 6 weeks their morning stiffness had reduced to 2 hours. They had their second dose of degarelix 80 mg s.c in October 2014. Lumbar flexion and maximum arm abduction were increased after 6 weeks of treatment.
Response to therapy in clinical practice is defined as improvement of 2 units or 50% on a 0-10 scale of the BASDAI, and expert opinion that the treatment should be continued. Their reduction by 6 weeks was 2.9 units, and 7.1 units with an 82% BASDAI score improvement by 9 weeks, and we shall continue treatment. A BASDAI 50% improvement is defined as a major clinical response. […] For comparison, approximately 50-60% of patients achieve a BASDAI 50 by 12 weeks on TNF inhibitors (4). Their ESR has decreased from 46 mm to 23 mm, which is their lowest ESR reading in 19 years. […] By 9 weeks of GnRH antagonist therapy, their kidney function has normalized, and fasting glucose reduced from 7.4 to 6.5 mmol/L. By 3 months, the effect on their ankylosing spondylitis remained, creatinine was at 98 μmol/L, with a glomerular filtration rate of 66 ml/min/1.73 m^2 in December 2014.

[13] = system: patients with psoriasis who were taking lithium; conditions: 15 patients, after 10 weeks, cited from earlier work

O=P1(N(CCCl)CCCl)NCCCO1 (stereo not shown) [cyclophosphamide]
Digital ulcers, average number [1]: 9 ulcers

CC(=O)N[C@H](Cc1ccc2ccccc2c1)C(=O)N[C@H](Cc1ccc(Cl)cc1)C(=O)N[C@H](Cc1cccnc1)C(=O)N[C@@H](CO)C(=O)N[C@@H](Cc1ccc(O)cc1)C(=O)N[C@H](CCCNC(N)=O)C(=O)N[C@@H](CC(C)C)C(=O)N[C@@H](CCCNC(=N)N)C(=O)N1CCC[C@H]1C(=O)N[C@H](C)C(N)=O [cetrorelix] (Ac-[d2Nal][dPhe(4-Cl)][d3Pal]SY[dCit]LRP[dA]-NH2)
Disease activity markers and TNF-α (log pg/mL) [2]: significant reductions
Synovitis in the knee joint on ultrasound [3]: decrease
Disease activity score (DAS) ([4]; 0.5 then 0.75 mg s.c. daily, from 6.1): 5.5
CRP ([4]; from 41 mg/L): 18 mg/L
Rheumatoid factor ([4]; from 137 kIU/L): 111 kIU/L
ESR ([4]; normalized from 35 mm): 28 mm
Primary end-point with regard to clinical response [5]: did not meet the primary end-point
TNFα [5]: possible reduction
Age at death vs placebo groups [6]: higher
Atherosclerosis vs placebo groups [6]: less
Osteoporosis vs placebo groups [6]: less
Systemic inflammation vs placebo groups [6]: less

CCN=C(NCC)NCCCC[C@H](NC(=O)[C@H](CC(C)C)NC(=O)[C@@H](CCCCNC(=NCC)NCC)NC(=O)[C@H](Cc1ccc(O)cc1)NC(=O)[C@H](CO)NC(=O)[C@@H](Cc1cccnc1)NC(=O)[C@@H](Cc1ccc(Cl)cc1)NC(=O)[C@@H](Cc1ccc2ccccc2c1)NC(C)=O)C(=O)N1CCC[C@H]1C(=O)N[C@H](C)C(N)=O [ganirelix] (Ac-[d2Nal][dPhe(4-Cl)][d3Pal]SY[d(hArg(Et2))]L[hArg(Et2)]P[dA]-NH2)
Disease activity score (DAS) ([7]; 0.75 mg s.c. daily, remission, from 5.5): 2.2
Anti-cyclic citrullinated peptide (CCP) antibodies ([7]; from 27 μ/mL): 14 μ/mL
ESR ([7]; from 28 mm): 19 mm
Rheumatoid factor ([7]; from 113 kIU/L): 75 kIU/L
CRP ([7]; normalization from 23 mg/L): 5 mg/L
Tendonitis of the elbow on ultrasound [8]: decrease

CC(C)C[C@H](CN)CC(=O)O [pregabalin]
Effect on pain ([9]; up to 150 mg×2): no effect

NCC1(CC(=O)O)CCCCC1 [gabapentin]
Effect on pain ([9]; 100 mg×3 up to 1200 mg×3): no effect

CONC(=O)Nc1ccc(-c2sc3c(c2CN(C)C)c(=O)n(-c2ccc(OC)nn2)c(=O)n3Cc2c(F)cccc2F)cc1 [relugolix]
BASDAI [10]: 1.2

infliximab: anti-TNFα monoclonal antibody
Fecal calprotectin concentration [11]: decreases significantly

COc1c(C)c2c(c(O)c1C/C=C(\C)CCC(=O)OCCN1CCOCC1)C(=O)OC2 [mycophenolate mofetil]
Reducing the pain in their extremities [9]: not effective
Side effects [9]: intolerable side effects such as mouth ulcers

Golilimumab: TNFα inhibitor Golilimumab
Disease activity score (BASDAI) ([12]; June 2012, 8.9 on initiating in October 2010): 6.6
Disease activity score (BASDAI) ([12]; May 2013, effect had worn off): 7.6

Enbrel
Disease activity score (BASDAI) ([12]; treatment initiated May 2013 at 7.6): 8.3

CN(Cc1cnc2nc(N)nc(N)c2n1)c1ccc(C(=O)N[C@@H](CCC(=O)O)C(=O)O)cc1 [methotrexate]
Reducing the pain in their extremities [9]: not effective
Side effects [9]: intolerable side effects such as mouth ulcers

Cn1cnc([N+](=O)[O-])c1Sc1ncnc2nc[nH]c12 [azathioprine]
Reducing the pain in their extremities [9]: not effective
Side effects [9]: intolerable side effects such as mouth ulcers

CN(C)CCC=C1c2ccccc2CCc2ccccc21 [amitriptyline]
Effect on pain ([9]; 25 mg, March 2014): no effect
Effect on pain ([9]; 50 mg, April 2014): no effect
Effect on pain ([9]; 150 mg daily): no effect

O[C@H]1[C@H](O)[C@@H](O)[C@H](O)[C@@H](O)[C@H]1O [inositol]
Median PASI score reduction [13]: 35%
Median PASI score reduction ([13]; median pretreatment PASI 4.9): 1.7 points
